Data: patent US20260262643A1, “HERBICIDAL BENZOXAZINES” (FMC CORPORATION, priority 2022, published 2026)

Columns and labels:
[1] = tested on: oat, wild; assay: Test C postemergence; format: in vivo, Avena fatua; details: 10 days
In short: (§1)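 Seeds sown in loam soil–sand blend received a directed preemergence soil spray of test chemical in non-phytotoxic solvent with surfactant; postemergence plants (2–10 cm, one- to two-leaf stage) were sprayed with the same formulation. Greenhouse-held 10 days, then visually rated for injury versus untreated controls, 0 (no effect) to 100 (complete control).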

[2] = tested on: barnyardgrass; assay: Test D flooded paddy test; format: in vivo, Echinochloa crus-galli; details: 250 g ai/ha, applied to paddy water, visual rating after 13 to 14 days, scale 0 to 100 (0 no effect, 100 complete control)
In short: (§2)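 Post-flood water application at the 2-leaf stage; 3 cm flood depth kept constant; visual control rating 0–100 after 13–14 days greenhouse growth.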

[3] = tested on: horseweed; assay: Test C postemergence; format: in vivo, Erigeron canadensis; details: 10 days
In short: as §1

[4] = tested on: blackgrass; assay: Test C preemergence; format: in vivo, Alopecurus myosuroides; details: for Plant response rating, Blackgrass: Preemergence; for Blackgrass plant response rating: preemergence
In short: as §1

[5] = tested on: oat, wild; assay: Test C preemergence; format: in vivo, Avena fatua; details: for Oat, Wild plant response rating: preemergence, 0 to 100 scale (0 no effect, 100 complete control)
In short: as §1

[6] = tested on: green foxtail; assay: Test C preemergence; format: in vivo, Setaria viridis; details: for Foxtail, Green plant response rating: preemergence, 0 to 100 scale (0 no effect, 100 complete control)
In short: as §1

[7] = tested on: ragweed; assay: Test C preemergence; format: in vivo, Ambrosia artemisiifolia; details: for Ragweed plant response rating: preemergence, 0 to 100 scale (0 no effect, 100 complete control)
In short: as §1

[8] = tested on: ducksalad; assay: Test D flooded paddy test; format: in vivo, Heteranthera limosa; details: 250 g ai/ha, applied to paddy water, visual rating after 13 to 14 days, scale 0 to 100 (0 no effect, 100 complete control)
In short: as §2

[9] = tested on: pigweed, palmer; assay: Test C preemergence; format: in vivo, Amaranthus palmeri; details: for Pigweed, Palmer plant response rating: preemergence, 0 to 100 scale (0 no effect, 100 complete control)
In short: as §1

[10] = tested on: soybean; assay: Test C preemergence; format: in vivo, Glycine max; details: for Soybean plant response rating: preemergence, 0 to 100 scale (0 no effect, 100 complete control)
In short: as §1

[11] = tested on: blackgrass; assay: Test C postemergence; format: in vivo, Alopecurus myosuroides; details: 10 days
In short: as §1

[12] = tested on: ryegrass, Italian; assay: Test C preemergence; format: in vivo, Lolium multiflorum; details: for Ryegrass, Italian plant response rating: preemergence, 0 to 100 scale (0 no effect, 100 complete control)
In short: as §1

[13] = tested on: kochia; assay: Test C preemergence; format: in vivo, Bassia scoparia; details: for Kochia plant response rating: preemergence, 0 to 100 scale (0 no effect, 100 complete control)
In short: as §1

[14] = tested on: sedge, umbrella; assay: Test D flooded paddy test; format: in vivo, Cyperus difformis; details: 250 g ai/ha, applied to paddy water, visual rating after 13 to 14 days, scale 0 to 100 (0 no effect, 100 complete control)
In short: as §2

[15] = tested on: ryegrass, Italian; assay: Test C postemergence; format: in vivo, Lolium multiflorum; details: 10 days
In short: as §1

[16] = tested on: wheat; assay: Test C preemergence; format: in vivo, Triticum aestivum; details: for Wheat plant response rating: preemergence, 0 to 100 scale (0 no effect, 100 complete control)
In short: as §1

[17] = tested on: barnyardgrass; assay: Test C postemergence; format: in vivo, Echinochloa crusgalli; details: 10 days
In short: as §1

[18] = tested on: corn; assay: Test C preemergence; format: in vivo, Zea mays; details: for Corn plant response rating: preemergence, 0 to 100 scale (0 no effect, 100 complete control)
In short: as §1

[19] = tested on: barnyardgrass; assay: Test C preemergence; format: in vivo, Echinochloa crusgalli; details: for Plant response rating, Barnyardgrass: Preemergence; for Barnyardgrass plant response rating: preemergence
In short: as §1

[20] = tested on: wheat; assay: Test C postemergence; format: in vivo, Triticum aestivum; details: 10 days
In short: as §1

[21] = tested on: galium; assay: Test C postemergence; format: in vivo, Galium aparine; details: 10 days
In short: as §1

[22] = tested on: ragweed; assay: Test C postemergence; format: in vivo, Ambrosia artemisiifolia; details: 10 days
In short: as §1

[23] = tested on: rice; assay: Test D flooded paddy test; format: in vivo, Oryza sativa; details: 250 g ai/ha, applied to paddy water, visual rating after 13 to 14 days, scale 0 to 100 (0 no effect, 100 complete control)
In short: as §2

[24] = tested on: corn; assay: Test C postemergence; format: in vivo, Zea mays; details: 10 days
In short: as §1

[25] = tested on: green foxtail; assay: Test C postemergence; format: in vivo, Setaria viridis; details: 10 days
In short: as §1

[26] = tested on: soybean; assay: Test C postemergence; format: in vivo, Glycine max; details: 10 days
In short: as §1

[27] = tested on: kochia; assay: Test C postemergence; format: in vivo, Bassia scoparia; details: 10 days
In short: as §1

[28] = tested on: pigweed, palmer; assay: Test C postemergence; format: in vivo, Amaranthus palmeri; details: 10 days
In short: as §1

[29] = 125 g ai/ha, postemergence, 0 to 100 scale, 0 no effect, 100 complete control
[30] = Postemergence, 500 g ai/ha, visual 0 to 100 scale (0 no effect, 100 complete control)
[31] = 500 g ai/ha, visual rating after 10 days, 0 to 100 scale (0 no effect, 100 complete control)
[32] = Test C, 125 g ai/ha, 0 to 100 scale (0 no effect, 100 complete control)
[33] = 500 g ai/ha, postemergence, 0 to 100 scale (0 no effect, 100 complete control)
[34] = Postemergence, 125 g ai/ha, 0 to 100 scale (0 no effect, 100 complete control)
[35] = 500 g ai/ha, 0 to 100 scale (0 no effect, 100 complete control)
[36] = 125 g ai/ha, 0 to 100 scale, 0 no effect, 100 complete control
[37] = Preemergence, 125 g ai/ha, 0 to 100 scale, 0 no effect, 100 complete control

Cc1ccc(-n2cnc(C3(C)COC3)n2)cc1C(=O)N1C[C@H](C)Oc2c(Cl)cccc21 [Compound 275]
10: Plant response rating, Rice (Flood) [23] | Plant response rating, Corn [24, 29]
90: Plant response rating, Horseweed [3, 30] | Plant response rating, Blackgrass [4, 31] | Oat, Wild plant response rating ([5]; 500 g ai/ha) | Plant response rating, Blackgrass [11, 30] | Plant response rating, Ryegrass, Italian [15, 29] | Plant response rating, Barnyardgrass [17, 30] | Plant response rating, Corn [24, 30] | Plant response rating, Foxtail, Green [25, 30]
60: Plant response rating, Oat, Wild [1, 29] | Plant response rating, Horseweed [3, 29] | Ragweed plant response rating ([7]; Test C, 125 g ai/ha) | Corn plant response rating ([18]; 500 g ai/ha)
80: Ragweed plant response rating ([7]; 500 g ai/ha) | Soybean plant response rating ([10]; Test C, 125 g ai/ha) | Plant response rating, Blackgrass [11, 29] | Ryegrass, Italian plant response rating ([12]; Test C, 125 g ai/ha) | Kochia plant response rating ([13]; Test C, 125 g ai/ha) | Plant response rating, Ragweed [22, 29] | Plant response rating, Kochia [27, 29] | Plant response rating, Pigweed, Palmer [28, 29]
40: Plant response rating, Wheat [20, 29]
100: Foxtail, Green plant response rating ([6]; 500 g ai/ha) | Foxtail, Green plant response rating ([6]; Test C, 125 g ai/ha) | Pigweed, Palmer plant response rating ([9]; 500 g ai/ha) | Pigweed, Palmer plant response rating ([9]; Test C, 125 g ai/ha) | Soybean plant response rating ([10]; 500 g ai/ha) | Ryegrass, Italian plant response rating ([12]; 500 g ai/ha) | Kochia plant response rating ([13]; 500 g ai/ha) | Plant response rating, Barnyardgrass [19, 31] | Barnyardgrass plant response rating [19, 32] | Plant response rating, Galium [21, 29] | Plant response rating, Galium [21, 30] | Plant response rating, Soybean [26, 29]
30: Wheat plant response rating ([16]; Test C, 125 g ai/ha) | Corn plant response rating ([18]; Test C, 125 g ai/ha)
95: Plant response rating, Sedge, Umbrella (Flood) [14]
50: Blackgrass plant response rating [4, 32] | Oat, Wild plant response rating ([5]; Test C, 125 g ai/ha) | Plant response rating, Barnyardgrass [17, 29]
35: Plant response rating, Barnyardgrass (Flood) [2]
70: Wheat plant response rating ([16]; 500 g ai/ha) | Plant response rating, Foxtail, Green [25, 29]
85: Plant response rating, Ducksalad (Flood) [8]

CCOCC1CN(C(=O)c2cc(-n3cnc(C(C)(C)C)n3)ccc2OC)c2cccc(Cl)c2O1 (stereo not shown) [Compound 379]
35: Plant response rating, Barnyardgrass (Flood) [2]
60: Plant response rating, Barnyardgrass [17, 33] | Plant response rating, Barnyardgrass [19, 36]
100: Foxtail, Green plant response rating ([6]; 500 g ai/ha) | Pigweed, Palmer plant response rating ([9]; 500 g ai/ha) | Plant response rating, Pigweed, Palmer [9, 37] | Kochia plant response rating ([13]; 500 g ai/ha) | Barnyardgrass plant response rating [19, 35] | Plant response rating, Galium [21, 33] | Plant response rating, Soybean [26, 33] | Plant response rating, Soybean [26, 34] | Plant response rating, Pigweed, Palmer [28, 33]
0: Plant response rating, Oat, Wild [1, 34] | Plant response rating, Horseweed [3, 34] | Blackgrass plant response rating [4, 35] | Plant response rating, Blackgrass [4, 36] | Plant response rating, Ragweed [7, 37]
15: Plant response rating, Rice (Flood) [23]
55: Plant response rating, Ducksalad (Flood) [8]
70: Plant response rating, Ryegrass, Italian [12, 37] | Plant response rating, Galium [21, 34]
90: Soybean plant response rating ([10]; 500 g ai/ha) | Plant response rating, Soybean [10, 37] | Ryegrass, Italian plant response rating ([12]; 500 g ai/ha) | Plant response rating, Ragweed [22, 33] | Plant response rating, Kochia [27, 33] | Plant response rating, Kochia [27, 34]
30: Plant response rating, Horseweed [3, 33] | Plant response rating, Oat, Wild [5, 37] | Plant response rating, Blackgrass [11, 33] | Plant response rating, Blackgrass [11, 34] | Plant response rating, Ryegrass, Italian [15, 34] | Plant response rating, Barnyardgrass [17, 34] | Corn plant response rating ([18]; 500 g ai/ha) | Plant response rating, Corn [18, 37] | Plant response rating, Ragweed [22, 34] | Plant response rating, Corn [24, 34]
40: Wheat plant response rating ([16]; 500 g ai/ha)
65: Plant response rating, Sedge, Umbrella (Flood) [14]
80: Oat, Wild plant response rating ([5]; 500 g ai/ha) | Plant response rating, Foxtail, Green [6, 37] | Ragweed plant response rating ([7]; 500 g ai/ha) | Plant response rating, Kochia [13, 37] | Plant response rating, Pigweed, Palmer [28, 34]
20: Plant response rating, Wheat [16, 37] | Plant response rating, Wheat [20, 33] | Plant response rating, Foxtail, Green [25, 33] | Plant response rating, Foxtail, Green [25, 34]
50: Plant response rating, Ryegrass, Italian [15, 33] | Plant response rating, Corn [24, 33]
10: Plant response rating, Oat, Wild [1, 33] | Plant response rating, Wheat [20, 34]
